Measured values reported in PubChem BioAssay (NCI).
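Following 48 hours of exposure in 96-well plates, responses at five concentrations were used to interpolate endpoints linearly. Definition used: TGI = concentration required for complete inhibition of growth.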

Assays:
Experiment in all cases: NCI-60 cell line screen, 48 h
K-562 leukemia = tested on: K-562 leukemia
SNB-75 CNS = tested on: SNB-75 CNS
HL-60(TB) leukemia = tested on: HL-60(TB) leukemia
SN12C renal = tested on: SN12C renal
NCI/ADR-RES ovarian = tested on: NCI/ADR-RES ovarian
SK-OV-3 ovarian = tested on: SK-OV-3 ovarian
U251 CNS = tested on: U251 CNS
HCC-2998 colon = tested on: HCC-2998 colon
MALME-3M melanoma = tested on: MALME-3M melanoma
SF-539 CNS = tested on: SF-539 CNS
PC-3 prostate = tested on: PC-3 prostate
HOP-92 NSCLC = tested on: HOP-92 NSCLC
MOLT-4 leukemia = tested on: MOLT-4 leukemia
ACHN renal = tested on: ACHN renal
OVCAR-3 ovarian = tested on: OVCAR-3 ovarian
SR leukemia = tested on: SR leukemia
786-0 renal = tested on: 786-0 renal
SF-295 CNS = tested on: SF-295 CNS
NCI-H460 lung = tested on: NCI-H460 lung
IGROV1 ovarian = tested on: IGROV1 ovarian
T-47D breast = tested on: T-47D breast
NCI-H23 lung = tested on: NCI-H23 lung
A498 renal = tested on: A498 renal
HOP-62 NSCLC = tested on: HOP-62 NSCLC
OVCAR-8 ovarian = tested on: OVCAR-8 ovarian
SK-MEL-2 melanoma = tested on: SK-MEL-2 melanoma
HT29 colon = tested on: HT29 colon
MDA-N = tested on: MDA-N
A549 NSCLC = tested on: A549 NSCLC
HS 578T breast = tested on: HS 578T breast
DU-145 prostate = tested on: DU-145 prostate
RPMI-8226 leukemia = tested on: RPMI-8226 leukemia
NCI-H226 lung = tested on: NCI-H226 lung
MDA-MB-231 breast = tested on: MDA-MB-231 breast
CCRF-CEM leukemia = tested on: CCRF-CEM leukemia
MCF7 breast = tested on: MCF7 breast
UACC-257 melanoma = tested on: UACC-257 melanoma
UO-31 renal = tested on: UO-31 renal
SK-MEL-5 melanoma = tested on: SK-MEL-5 melanoma
KM12 colon = tested on: KM12 colon
OVCAR-4 ovarian = tested on: OVCAR-4 ovarian
SK-MEL-28 melanoma = tested on: SK-MEL-28 melanoma
CAKI-1 renal = tested on: CAKI-1 renal
MDA-MB-435 = tested on: MDA-MB-435
SNB-19 CNS = tested on: SNB-19 CNS
RXF 393 renal = tested on: RXF 393 renal
SF-268 CNS = tested on: SF-268 CNS
UACC-62 melanoma = tested on: UACC-62 melanoma
HCT-15 colon = tested on: HCT-15 colon
M14 melanoma = tested on: M14 melanoma
NCI-H522 lung = tested on: NCI-H522 lung
COLO 205 colon = tested on: COLO 205 colon
BT-549 breast = tested on: BT-549 breast
TK-10 renal = tested on: TK-10 renal
EKVX NSCLC = tested on: EKVX NSCLC
OVCAR-5 ovarian = tested on: OVCAR-5 ovarian
SW-620 colon = tested on: SW-620 colon
LOX IMVI melanoma = tested on: LOX IMVI melanoma
HCT-116 colon = tested on: HCT-116 colon
DLD-1 colon = tested on: DLD-1 colon
KM20L2 colon = tested on: KM20L2 colon
XF 498 CNS = tested on: XF 498 CNS
DMS 114 small cell lung = tested on: DMS 114 small cell lung
LXFL 529 NSCLC = tested on: LXFL 529 NSCLC
M19-MEL melanoma = tested on: M19-MEL melanoma
SNB-78 CNS = tested on: SNB-78 CNS

In the case of `Cc1ccccc1NC(=S)N/N=C(/c1ccccc1)c1ccccn1`, the TGI (K-562 leukemia) was 4.17 µM, the TGI (SNB-75 CNS) was 17.4 µM and the TGI (HL-60(TB) leukemia) was 1.24 µM. It also gave a TGI (SN12C renal) of 10 µM, a TGI (NCI/ADR-RES ovarian) of 15.2 µM and a TGI (SK-OV-3 ovarian) of 14.2 µM. The TGI (U251 CNS) was 12.1 µM, the TGI (HCC-2998 colon) was 14.3 µM and the TGI (MALME-3M melanoma) was 11.8 µM. It also gave a TGI (SF-539 CNS) of 7.76 µM, a TGI (PC-3 prostate) of 13.6 µM and a TGI (HOP-92 NSCLC) of 13.2 µM. For the same compound, the TGI (MOLT-4 leukemia) was 3.98 µM, the TGI (ACHN renal) was 5.4 µM and the TGI (OVCAR-3 ovarian) was 10.5 µM. For the same compound, the TGI (SR leukemia) was greater than 21.2 µM, the TGI (786-0 renal) was 10.8 µM and the TGI (SF-295 CNS) was 8.7 µM. It also gave a TGI (NCI-H460 lung) of 9.05 µM, a TGI (IGROV1 ovarian) of 15.3 µM and a TGI (T-47D breast) of 12.4 µM. The TGI (NCI-H23 lung) was 21.5 µM, the TGI (A498 renal) was 10.2 µM and the TGI (HOP-62 NSCLC) was 11.5 µM. It also gave a TGI (OVCAR-8 ovarian) of 11.8 µM, a TGI (SK-MEL-2 melanoma) of 6.9 µM and a TGI (HT29 colon) of 15.8 µM. The TGI (MDA-N) was 14.1 µM, the TGI (A549 NSCLC) was 11.8 µM and the TGI (HS 578T breast) was 31.2 µM. It also gave a TGI (DU-145 prostate) of 18.3 µM, a TGI (RPMI-8226 leukemia) of 10.2 µM and a TGI (NCI-H226 lung) of 1.66 µM. It also gave a TGI (MDA-MB-231 breast) of 12.7 µM, a TGI (CCRF-CEM leukemia) of 11.6 µM and a TGI (MCF7 breast) of 15.3 µM. The TGI (UACC-257 melanoma) was 0.357 µM, the TGI (UO-31 renal) was 4.25 µM and the TGI (SK-MEL-5 melanoma) was 3.93 µM. The TGI (KM12 colon) was 14 µM, the TGI (OVCAR-4 ovarian) was 20.8 µM and the TGI (SK-MEL-28 melanoma) was 16.8 µM. For the same compound, the TGI (CAKI-1 renal) was 10.5 µM, the TGI (MDA-MB-435) was 14.2 µM and the TGI (SNB-19 CNS) was 16.5 µM. It also gave a TGI (RXF 393 renal) of 12.3 µM, a TGI (SF-268 CNS) of 14.8 µM and a TGI (UACC-62 melanoma) of 17.1 µM. For the same compound, the TGI (HCT-15 colon) was 15.8 µM, the TGI (M14 melanoma) was 1.91 µM and the TGI (NCI-H522 lung) was 3.4 µM. The TGI (COLO 205 colon) was 19.1 µM, the TGI (BT-549 breast) was 18.5 µM and the TGI (TK-10 renal) was 5.24 µM. For the same compound, the TGI (EKVX NSCLC) was 3.43 µM, the TGI (OVCAR-5 ovarian) was 10.6 µM and the TGI (SW-620 colon) was 15.4 µM. For the same compound, the TGI (LOX IMVI melanoma) was 20.4 µM and the TGI (HCT-116 colon) was 17.2 µM.

In the case of `COc1cc(/C=C(\NC(=O)c2ccccc2)c2nc3ccc([N+](=O)[O-])cc3[nH]2)cc(OC)c1OC`, the TGI (K-562 leukemia) was greater than 100 µM, the TGI (DLD-1 colon) was greater than 100 µM and the TGI (SN12C renal) was greater than 100 µM. For the same compound, the TGI (SK-OV-3 ovarian) was greater than 100 µM, the TGI (U251 CNS) was greater than 100 µM and the TGI (HCC-2998 colon) was greater than 100 µM. The TGI (MALME-3M melanoma) was greater than 100 µM, the TGI (HOP-92 NSCLC) was greater than 100 µM and the TGI (MOLT-4 leukemia) was greater than 100 µM. It also gave a TGI (KM20L2 colon) greater than 100 µM, a TGI (OVCAR-3 ovarian) greater than 100 µM and a TGI (SR leukemia) greater than 100 µM. It also gave a TGI (SF-295 CNS) greater than 100 µM, a TGI (IGROV1 ovarian) greater than 100 µM and a TGI (XF 498 CNS) greater than 100 µM. It also gave a TGI (NCI-H23 lung) greater than 100 µM, a TGI (OVCAR-8 ovarian) greater than 100 µM and a TGI (SK-MEL-2 melanoma) greater than 100 µM. The TGI (HT29 colon) was greater than 100 µM, the TGI (CCRF-CEM leukemia) was greater than 100 µM and the TGI (UO-31 renal) was 89.5 µM. For the same compound, the TGI (SK-MEL-5 melanoma) was greater than 100 µM, the TGI (KM12 colon) was greater than 100 µM and the TGI (OVCAR-4 ovarian) was greater than 100 µM. For the same compound, the TGI (SK-MEL-28 melanoma) was greater than 100 µM, the TGI (CAKI-1 renal) was greater than 100 µM and the TGI (DMS 114 small cell lung) was greater than 100 µM. It also gave a TGI (SNB-19 CNS) greater than 100 µM, a TGI (RXF 393 renal) greater than 100 µM and a TGI (LXFL 529 NSCLC) greater than 100 µM. The TGI (M19-MEL melanoma) was greater than 100 µM, the TGI (UACC-62 melanoma) was greater than 100 µM and the TGI (HCT-15 colon) was greater than 100 µM. It also gave a TGI (M14 melanoma) greater than 100 µM, a TGI (NCI-H522 lung) greater than 100 µM and a TGI (COLO 205 colon) greater than 100 µM. For the same compound, the TGI (TK-10 renal) was greater than 100 µM, the TGI (SNB-78 CNS) was greater than 100 µM and the TGI (OVCAR-5 ovarian) was greater than 100 µM. For the same compound, the TGI (SW-620 colon) was greater than 100 µM.
